Reference: PMC4447944 (The Journal of Biological Chemistry, 2015)

Assays:
[1] = molecular target: T1, hRPS6KA5(Kin.Dom.2-C-term) (Homo sapiens, UniProt O75582); assay: KINOMEscan; type: binding
T1 construct: hRPS6KA5(Kin.Dom.2-C-term); purchased DiscoverX (KINOMEscan platform)

hEPHA7 = molecular target: T2, hEPHA7 (Homo sapiens, UniProt Q15375); assay: KINOMEscan; type: binding
T2 construct: purchased DiscoverX

bacPKNB = molecular target: T3, bacPKNB (Mycobacterium tuberculosis, UniProt P9WI81); assay: KINOMEscan; type: binding
T3 construct: purchased DiscoverX

hTAOK2 = molecular target: T4, hTAOK2 (Homo sapiens, UniProt Q9UL54); assay: KINOMEscan; type: binding
T4 construct: purchased DiscoverX

hBRAF(V600E) = molecular target: T5, hBRAF(V600E) (Homo sapiens, UniProt P15056, V600E); assay: KINOMEscan; type: binding
T5 construct: purchased DiscoverX
T5 sequence (P15056 whole entry V600E): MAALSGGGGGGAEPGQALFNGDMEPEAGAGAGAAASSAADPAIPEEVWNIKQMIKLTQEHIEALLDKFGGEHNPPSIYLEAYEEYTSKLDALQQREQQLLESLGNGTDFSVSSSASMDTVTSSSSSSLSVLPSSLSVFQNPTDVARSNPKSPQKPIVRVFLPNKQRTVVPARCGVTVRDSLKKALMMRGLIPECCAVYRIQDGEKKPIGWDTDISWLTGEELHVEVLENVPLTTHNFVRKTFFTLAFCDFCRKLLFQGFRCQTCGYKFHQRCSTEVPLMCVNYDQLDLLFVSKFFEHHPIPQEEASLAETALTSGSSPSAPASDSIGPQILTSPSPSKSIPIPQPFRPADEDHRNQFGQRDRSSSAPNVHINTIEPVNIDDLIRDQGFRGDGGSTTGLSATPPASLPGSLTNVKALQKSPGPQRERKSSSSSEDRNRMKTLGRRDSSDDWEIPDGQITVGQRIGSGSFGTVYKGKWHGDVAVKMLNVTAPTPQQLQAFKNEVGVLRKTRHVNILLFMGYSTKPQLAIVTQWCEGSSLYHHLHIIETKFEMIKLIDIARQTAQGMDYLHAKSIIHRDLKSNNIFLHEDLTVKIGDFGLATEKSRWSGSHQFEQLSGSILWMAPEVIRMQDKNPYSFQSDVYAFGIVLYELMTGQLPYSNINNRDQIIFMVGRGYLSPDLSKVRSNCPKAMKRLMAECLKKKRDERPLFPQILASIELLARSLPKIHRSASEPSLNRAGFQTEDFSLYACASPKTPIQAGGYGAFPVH

hMEK6 = molecular target: T6, hMEK6 (Homo sapiens, UniProt P52564); assay: KINOMEscan; type: binding
T6 construct: purchased DiscoverX
T6 sequence (P52564 whole entry): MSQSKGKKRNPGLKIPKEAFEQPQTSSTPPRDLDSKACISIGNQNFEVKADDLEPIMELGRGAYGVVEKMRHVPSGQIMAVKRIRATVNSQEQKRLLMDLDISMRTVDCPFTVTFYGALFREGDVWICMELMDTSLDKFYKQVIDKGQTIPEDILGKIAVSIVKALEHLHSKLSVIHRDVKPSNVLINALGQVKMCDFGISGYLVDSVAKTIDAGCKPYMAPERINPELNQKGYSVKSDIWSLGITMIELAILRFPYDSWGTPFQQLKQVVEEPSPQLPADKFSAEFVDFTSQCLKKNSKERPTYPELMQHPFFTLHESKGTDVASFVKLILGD

hADRα1A = molecular target: T7, hADRα1A (Homo sapiens, UniProt P35348); assay: Calcium Mobilization Antagonist (Eurofins-CEREP); conditions: read-out: % Effect, Inhibition
T7 sequence (P35348 1-466): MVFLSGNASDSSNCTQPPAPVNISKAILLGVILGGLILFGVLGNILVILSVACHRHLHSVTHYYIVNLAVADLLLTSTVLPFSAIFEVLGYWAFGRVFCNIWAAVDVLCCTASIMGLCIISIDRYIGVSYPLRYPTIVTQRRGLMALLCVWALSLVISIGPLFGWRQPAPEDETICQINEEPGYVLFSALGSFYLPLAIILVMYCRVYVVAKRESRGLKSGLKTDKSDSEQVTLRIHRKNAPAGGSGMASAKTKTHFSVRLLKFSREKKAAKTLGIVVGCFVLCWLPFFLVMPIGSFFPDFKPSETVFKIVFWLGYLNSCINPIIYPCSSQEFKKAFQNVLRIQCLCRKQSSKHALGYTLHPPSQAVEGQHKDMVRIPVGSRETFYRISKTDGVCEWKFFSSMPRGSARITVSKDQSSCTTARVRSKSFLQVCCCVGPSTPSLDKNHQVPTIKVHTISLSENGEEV

hSNARK = molecular target: T8, hSNARK (Homo sapiens, UniProt Q9H093); assay: KINOMEscan; type: binding
T8 construct: purchased DiscoverX (KINOMEscan platform)
T8 sequence (Q9H093 whole entry): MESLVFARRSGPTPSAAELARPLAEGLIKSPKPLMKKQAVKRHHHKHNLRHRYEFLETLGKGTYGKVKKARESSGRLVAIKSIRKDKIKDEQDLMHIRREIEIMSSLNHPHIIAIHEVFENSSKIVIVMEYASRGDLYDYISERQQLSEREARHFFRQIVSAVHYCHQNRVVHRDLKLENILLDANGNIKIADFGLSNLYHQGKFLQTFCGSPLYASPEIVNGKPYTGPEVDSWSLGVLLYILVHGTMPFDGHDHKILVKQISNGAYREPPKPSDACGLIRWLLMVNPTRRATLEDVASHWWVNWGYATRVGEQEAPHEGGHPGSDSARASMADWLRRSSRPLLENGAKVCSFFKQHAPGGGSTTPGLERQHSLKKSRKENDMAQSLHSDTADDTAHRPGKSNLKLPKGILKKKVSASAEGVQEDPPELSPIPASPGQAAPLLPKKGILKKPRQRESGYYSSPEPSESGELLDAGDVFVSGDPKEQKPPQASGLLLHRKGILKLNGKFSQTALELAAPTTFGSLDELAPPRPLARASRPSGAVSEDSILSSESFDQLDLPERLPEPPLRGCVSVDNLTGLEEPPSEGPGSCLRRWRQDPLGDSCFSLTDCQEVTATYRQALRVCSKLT

hMERTK = molecular target: T9, hMERTK (Homo sapiens, UniProt Q12866); assay: KINOMEscan; type: binding
T9 construct: purchased DiscoverX

hRET = molecular target: T10, hRET (Homo sapiens, UniProt P07949); assay: KINOMEscan; type: binding
T10 construct: purchased DiscoverX (KINOMEscan platform)

hCDKL3 = molecular target: T11, hCDKL3 (Homo sapiens, UniProt Q8IVW4); assay: KINOMEscan; type: binding
T11 construct: purchased DiscoverX

hDYRK1B = molecular target: T12, hDYRK1B (Homo sapiens, UniProt Q9Y463); assay: KINOMEscan; type: binding; conditions: read-out: Inhibition at the 20 μM dose
T12 construct: purchased DiscoverX

hCSNK2A1 = molecular target: T13, hCSNK2A1 (Homo sapiens, UniProt P68400); assay: KINOMEscan; type: binding
T13 construct: purchased DiscoverX (KINOMEscan platform)

hMET(M1250T) = molecular target: T14, hMET(M1250T) (Homo sapiens, UniProt P08581, M1250T); assay: KINOMEscan; type: binding
T14 construct: purchased DiscoverX

hTRβ1 = molecular target: T15, hTRβ1 (Homo sapiens, UniProt P10828); assay: Nuclear hormone receptor assay (Eurofins-CEREP); conditions: read-out: Relative IC50
T15 construct: Eurofins-CEREP
T15 sequence (P10828 whole entry): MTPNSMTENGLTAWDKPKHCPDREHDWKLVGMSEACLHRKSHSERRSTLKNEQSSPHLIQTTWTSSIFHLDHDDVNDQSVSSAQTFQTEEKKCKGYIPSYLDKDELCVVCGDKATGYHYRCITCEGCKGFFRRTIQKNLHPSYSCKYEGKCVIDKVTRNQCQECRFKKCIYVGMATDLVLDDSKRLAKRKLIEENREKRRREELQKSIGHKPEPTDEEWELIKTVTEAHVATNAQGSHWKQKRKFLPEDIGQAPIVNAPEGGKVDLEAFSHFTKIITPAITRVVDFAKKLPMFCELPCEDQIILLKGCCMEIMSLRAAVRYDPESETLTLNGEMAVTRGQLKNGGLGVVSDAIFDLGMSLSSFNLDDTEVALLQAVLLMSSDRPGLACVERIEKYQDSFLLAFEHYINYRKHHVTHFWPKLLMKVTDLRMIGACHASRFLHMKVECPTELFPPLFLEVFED

hRIOK2 = molecular target: T16, hRIOK2 (Homo sapiens, UniProt Q9BVS4); assay: KINOMEscan; type: binding
T16 construct: purchased DiscoverX (KINOMEscan platform)

hERK8 = molecular target: T17, hERK8 (Homo sapiens, UniProt Q8TD08); assay: KINOMEscan; type: binding
T17 construct: purchased DiscoverX

hDAPK1 = molecular target: T18, hDAPK1 (Homo sapiens, UniProt P53355); assay: KINOMEscan; type: binding
T18 construct: purchased DiscoverX (KINOMEscan platform)

CYP3A4 = molecular target: T19, CYP3A4 (Homo sapiens, UniProt P08684); assay: Cytochrome p450 inhibition (Eurofins-CEREP); type: in vitro ADME
T19 construct: Eurofins-CEREP

hLXRα = molecular target: T20, hLXRα (Homo sapiens, UniProt Q13133); assay: Nuclear hormone receptor assay (Eurofins-CEREP); conditions: read-out: Relative IC50
T20 construct: Eurofins-CEREP

hMARK1 = molecular target: T21, hMARK1 (Homo sapiens, UniProt Q9P0L2); assay: KINOMEscan; type: binding
T21 construct: purchased DiscoverX

h5HT2B = h5HT2B (Homo sapiens, UniProt P41595); assay: Calcium Mobilization Potentiation (Eurofins-CEREP); conditions: @ 10 μM
hFES = molecular target: T22, hFES (Homo sapiens, UniProt P07332); assay: KINOMEscan; type: binding
T22 construct: purchased DiscoverX

hMEK5 = molecular target: T23, hMEK5 (Homo sapiens, UniProt Q13163); assay: KINOMEscan; type: binding
T23 construct: purchased DiscoverX

hM3 = hM3 (Homo sapiens, UniProt P20309); assay: Calcium Mobilization Agonist (Eurofins-CEREP); conditions: @ 13.3 μM
hMAP3K4 = molecular target: T24, hMAP3K4 (Homo sapiens, UniProt Q9Y6R4); assay: KINOMEscan; type: binding
T24 construct: purchased DiscoverX (KINOMEscan platform)
T24 sequence (Q9Y6R4 whole entry): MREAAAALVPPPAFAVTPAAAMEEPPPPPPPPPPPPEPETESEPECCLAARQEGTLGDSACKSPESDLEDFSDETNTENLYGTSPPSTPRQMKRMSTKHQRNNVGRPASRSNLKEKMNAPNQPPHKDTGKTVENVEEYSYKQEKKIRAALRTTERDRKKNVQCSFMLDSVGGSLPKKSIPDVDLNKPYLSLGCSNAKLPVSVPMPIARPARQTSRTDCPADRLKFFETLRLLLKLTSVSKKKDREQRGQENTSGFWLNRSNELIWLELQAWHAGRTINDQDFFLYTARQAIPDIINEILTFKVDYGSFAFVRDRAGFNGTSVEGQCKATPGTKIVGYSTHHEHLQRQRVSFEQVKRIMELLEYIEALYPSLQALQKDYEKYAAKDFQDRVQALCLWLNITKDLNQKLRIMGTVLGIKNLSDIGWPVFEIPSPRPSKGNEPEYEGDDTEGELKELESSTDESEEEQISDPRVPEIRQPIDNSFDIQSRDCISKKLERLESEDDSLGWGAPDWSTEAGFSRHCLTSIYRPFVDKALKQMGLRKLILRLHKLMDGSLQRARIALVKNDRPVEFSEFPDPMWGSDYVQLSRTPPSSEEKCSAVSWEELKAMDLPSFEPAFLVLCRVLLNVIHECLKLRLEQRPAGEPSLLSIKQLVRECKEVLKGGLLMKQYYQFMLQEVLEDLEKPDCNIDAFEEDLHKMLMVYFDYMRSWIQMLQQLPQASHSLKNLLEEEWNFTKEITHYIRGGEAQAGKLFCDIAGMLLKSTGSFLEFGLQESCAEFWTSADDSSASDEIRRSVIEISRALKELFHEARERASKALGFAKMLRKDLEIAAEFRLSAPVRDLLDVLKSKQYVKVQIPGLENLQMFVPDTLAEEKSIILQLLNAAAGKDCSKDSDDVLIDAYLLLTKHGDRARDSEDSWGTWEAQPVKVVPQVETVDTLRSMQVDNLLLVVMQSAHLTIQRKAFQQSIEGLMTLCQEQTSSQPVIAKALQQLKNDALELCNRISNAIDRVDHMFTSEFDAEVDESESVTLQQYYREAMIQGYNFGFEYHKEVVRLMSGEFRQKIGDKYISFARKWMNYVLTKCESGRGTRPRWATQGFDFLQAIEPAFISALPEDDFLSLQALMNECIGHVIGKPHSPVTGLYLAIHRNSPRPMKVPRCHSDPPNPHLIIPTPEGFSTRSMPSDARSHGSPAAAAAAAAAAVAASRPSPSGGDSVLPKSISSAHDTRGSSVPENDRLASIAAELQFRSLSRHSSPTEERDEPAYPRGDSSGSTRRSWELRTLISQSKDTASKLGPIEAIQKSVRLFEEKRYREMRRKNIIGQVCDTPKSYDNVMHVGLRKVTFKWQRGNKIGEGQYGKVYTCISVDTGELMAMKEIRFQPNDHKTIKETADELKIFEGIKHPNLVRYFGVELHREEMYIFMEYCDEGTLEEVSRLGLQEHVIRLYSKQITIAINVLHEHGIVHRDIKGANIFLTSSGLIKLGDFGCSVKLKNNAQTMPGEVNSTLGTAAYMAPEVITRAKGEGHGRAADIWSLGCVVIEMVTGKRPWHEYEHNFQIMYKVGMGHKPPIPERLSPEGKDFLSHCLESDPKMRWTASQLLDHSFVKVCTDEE

hADRα2A = molecular target: T25, hADRα2A (Homo sapiens, UniProt P08913); assay: cAMP Potentiation (Eurofins-CEREP); conditions: @ 10 μM
T25 sequence (P08913 1-465): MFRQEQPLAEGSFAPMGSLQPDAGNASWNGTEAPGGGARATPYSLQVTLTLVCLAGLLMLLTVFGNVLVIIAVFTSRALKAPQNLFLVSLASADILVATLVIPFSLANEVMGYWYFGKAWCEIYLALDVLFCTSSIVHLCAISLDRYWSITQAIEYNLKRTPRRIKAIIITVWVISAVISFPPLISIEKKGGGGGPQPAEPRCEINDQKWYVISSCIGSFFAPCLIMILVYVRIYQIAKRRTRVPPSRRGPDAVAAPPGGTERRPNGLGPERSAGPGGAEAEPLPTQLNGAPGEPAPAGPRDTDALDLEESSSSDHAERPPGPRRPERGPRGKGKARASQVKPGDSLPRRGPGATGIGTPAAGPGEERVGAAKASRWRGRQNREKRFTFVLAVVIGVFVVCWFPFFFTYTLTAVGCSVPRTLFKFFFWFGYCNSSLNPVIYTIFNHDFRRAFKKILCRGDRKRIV

hCAMKK2 = molecular target: T26, hCAMKK2 (Homo sapiens, UniProt Q96RR4); assay: KINOMEscan; type: binding
T26 construct: purchased DiscoverX

T2 sequence (Q15375 28-998): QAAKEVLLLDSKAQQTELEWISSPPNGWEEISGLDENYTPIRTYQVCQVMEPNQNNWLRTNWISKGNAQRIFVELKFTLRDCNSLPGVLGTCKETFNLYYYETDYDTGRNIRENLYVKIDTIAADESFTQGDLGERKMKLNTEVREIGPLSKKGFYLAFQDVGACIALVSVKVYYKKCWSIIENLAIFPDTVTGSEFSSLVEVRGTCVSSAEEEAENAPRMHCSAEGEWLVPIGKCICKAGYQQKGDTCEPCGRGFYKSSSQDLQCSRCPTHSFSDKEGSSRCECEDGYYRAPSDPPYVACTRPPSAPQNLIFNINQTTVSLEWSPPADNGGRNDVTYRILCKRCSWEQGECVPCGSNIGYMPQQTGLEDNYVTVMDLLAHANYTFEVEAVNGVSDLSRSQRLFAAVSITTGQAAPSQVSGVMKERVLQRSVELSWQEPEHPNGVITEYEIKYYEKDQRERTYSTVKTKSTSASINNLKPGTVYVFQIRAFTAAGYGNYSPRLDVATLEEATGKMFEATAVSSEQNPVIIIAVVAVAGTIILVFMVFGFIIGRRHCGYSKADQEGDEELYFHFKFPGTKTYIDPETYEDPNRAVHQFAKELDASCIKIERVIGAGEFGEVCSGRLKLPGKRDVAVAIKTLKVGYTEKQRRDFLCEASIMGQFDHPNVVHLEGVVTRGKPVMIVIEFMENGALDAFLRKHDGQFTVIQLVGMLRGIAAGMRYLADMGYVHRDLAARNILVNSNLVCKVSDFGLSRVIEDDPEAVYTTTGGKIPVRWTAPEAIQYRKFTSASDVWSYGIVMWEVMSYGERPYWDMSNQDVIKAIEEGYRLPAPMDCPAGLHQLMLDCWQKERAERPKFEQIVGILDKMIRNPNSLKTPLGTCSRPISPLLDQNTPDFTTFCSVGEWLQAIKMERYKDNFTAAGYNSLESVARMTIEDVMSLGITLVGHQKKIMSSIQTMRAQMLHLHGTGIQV
T1 sequence (O75582 426-687 limits assumed): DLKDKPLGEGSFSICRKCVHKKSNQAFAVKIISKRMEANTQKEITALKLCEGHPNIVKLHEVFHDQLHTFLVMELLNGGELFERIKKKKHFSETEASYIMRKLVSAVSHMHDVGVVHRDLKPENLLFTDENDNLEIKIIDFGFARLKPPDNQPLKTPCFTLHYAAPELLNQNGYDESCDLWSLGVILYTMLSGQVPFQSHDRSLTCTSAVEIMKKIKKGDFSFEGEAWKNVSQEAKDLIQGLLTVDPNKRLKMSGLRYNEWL

`Cc1cn(CCN2CCN(c3ccccc3-c3cc(C#N)cc(C(=O)NCCCN4CCCC4)c3)CC2)c2ccccc12` [LLY-507, 3-cyano-5-{2-[4-[2-(3-methylindol-1-yl)ethyl]piperazin-1-yl]-phenyl}-N-[(3-pyrrolidin-1-yl)propyl]benzamide] was tested, and the IC50 [1] was > 20 µM, the IC50 (hEPHA7) was > 20 µM and the IC50 (bacPKNB) was > 20 µM. For the same compound, the IC50 (hTAOK2) was > 20 µM, the IC50 (hBRAF(V600E)) was > 20 µM and the IC50 (hMEK6) was > 20 µM. The inhibition at 10 µM (hADRα1A) was 98%, the IC50 (hSNARK) was > 20 µM and the IC50 (hMERTK) was > 20 µM. The IC50 (hRET) was > 20 µM, the IC50 (hCDKL3) was > 20 µM and the inhibition at 20 µM (hDYRK1B) was < 50%. For the same compound, the IC50 (hCSNK2A1) was > 20 µM, the IC50 (hMET(M1250T)) was > 20 µM and the IC50 (hTRβ1) was > 10 µM. For the same compound, the IC50 (hRIOK2) was > 20 µM, the IC50 (hERK8) was > 20 µM and the IC50 (hDAPK1) was > 20 µM. For the same compound, the “% inhibition @ 10 μM” value (CYP3A4) was 69.1%, the IC50 (hLXRα) was > 10 µM and the IC50 (hMARK1) was > 20 µM. The “% Effect, Potentiation” value (h5HT2B) was -7.3%, the IC50 (hFES) was > 20 µM and the IC50 (hMEK5) was > 20 µM. The “% Effect, Stimulation” value (hM3) was -1.4%, the IC50 (hMAP3K4) was > 20 µM and the “% Effect, Potentiation” value (hADRα2A) was -20.5%. The IC50 (hCAMKK2) was > 20 µM.
